# Source: patent US20070117743A1, “New antitumoral compounds” (priority 2003, published 2007)
# Where a SMILES comes first, the peptide text is derived from it. Bridges are numbered along the chain shown (N, C = ends). [ ]: non-standard residue; d: D form. The star is where a group is joined. d(aIle) = CC[C@H](C)[C@@H](N)C(=O)O; d(aThr) = C[C@@H](O)[C@@H](N)C(=O)O; Hexanoyl(5-Me) = CC(C)CCCC(=O)*; Orn = NCCC[C@H](N)C(=O)O; Dhb = C/C=C(\N)C(=O)O
# Experiments:
# Assay type in all cases: cell-based, human
# Conditions in all cases: 48 hours exposure
# [1] = test system: IGROV-ET; test: SRB colorimetric assay of cell growth and viability, IGROV-ET
# [2] = test system: HeLa; test: SRB colorimetric assay of cell growth and viability, HeLa
# [3] = test system: A-549; test: SRB colorimetric assay of cell growth and viability, A-549
# [4] = test system: IGROV-1; test: SRB colorimetric assay of cell growth and viability, IGROV-1
# [5] = test system: LoVo; test: SRB colorimetric assay of cell growth and viability, LoVo
# [6] = test system: SK-MEL-28; test: SRB colorimetric assay of cell growth and viability, SK-MEL-28
# [7] = test system: HeLa-APL; test: SRB colorimetric assay of cell growth and viability, HeLa-APL
# [8] = test system: DU-145; test: SRB colorimetric assay of cell growth and viability, DU-145
# [9] = test system: HT-29; test: SRB colorimetric assay of cell growth and viability, HT-29
# [10] = test system: LNCaP; test: SRB colorimetric assay of cell growth and viability, LNCaP
# [11] = test system: K-562; test: SRB colorimetric assay of cell growth and viability, K-562
# [12] = test system: PANC-1; test: SRB colorimetric assay of cell growth and viability, PANC-1
# [13] = test system: SK-BR-3; test: SRB colorimetric assay of cell growth and viability, SK-BR-3
smiles,measurement,setting,value
"C/C=C1\NC(=O)[C@H](Cc2ccccc2)NC(=O)[C@@H](C(C)C)NC(=O)[C@@H]([C@@H](C)CC)NC(=O)[C@H](NC(=O)[C@H](NC(=O)[C@H](CCCN)NC(=O)[C@H]2CCCN2C(=O)[C@H](NC(=O)[C@H](C)NC(=O)[C@@H](NC(=O)[C@H](NC(=O)CCCC(C)C)C(C)C)[C@@H](C)O)C(C)C)[C@@H](C)CC)[C@@H](C)OC(=O)[C@H](C(C)C)NC1=O [Compound 44, [Ala^11]-KF] ({Hexanoyl(5-Me)}-[dV]TA[dV][dP][Orn][d(aIle)][d(aThr)][d(aIle)][dV]F[Dhb]V; ester 8-C)",GI50,[1],1.5 µM
same,TGI IGROV-ET,[1],2.95E−06 Molar
same,CC50,[1]; read-out: LC50 IGROV-ET,5.77 µM
same,GI50,[2],2.85 µM
same,TGI HELA,[2],6.90E−06 Molar
same,CC50,[2]; read-out: LC50 HELA,6.9 µM
same,TGI A-549,[3],6.90E−06 Molar
same,GI50,[3]; read-out: GI50 A-549,2.69 µM
same,CC50,[3]; read-out: LC50 A-549,6.9 µM
same,GI50,[4],1.43 µM
same,LC50 (concentration causing 50% net cell killing),[4],5.72 µM
same,TGI IGROV,[4],2.86E−06 Molar
same,GI50,[5],0.973 µM
same,TGI LOVO,[5],2.03E−06 Molar
same,CC50,[5]; read-out: LC50 LOVO,4.23 µM
same,GI50,[6],3.69 µM
same,TGI MEL-28,[6],6.90E−06 Molar
same,CC50,[6]; read-out: LC50 MEL-28,6.9 µM
same,GI50,[7],3.18 µM
same,TGI HELA-APL,[7],6.90E−06 Molar
same,CC50,[7]; read-out: LC50 HELA-APL,6.9 µM
same,GI50,[8],3.03 µM
same,LC50 (concentration causing 50% net cell kill),[8],6.9 µM
same,TGI DU-145,[8],6.90E−06 Molar
same,TGI HT-29,[9],2.61E−06 Molar
same,GI50,[9]; read-out: GI50 HT-29,1.34 µM
same,CC50,[9]; read-out: LC50 HT-29,5.08 µM
same,GI50,[10]; read-out: GI50 LN-caP,2.78 µM
same,CC50,[10]; read-out: LC50 LN-caP,6.9 µM
same,GI50,[11],3.06 µM
same,TGI K-562,[11],6.90E−06 Molar
same,CC50,[11]; read-out: LC50 K-562,6.9 µM
same,GI50,[12],6.9 µM
same,TGI PANC-1,[12],6.90E−06 Molar
same,CC50,[12]; read-out: LC50 PANC-1,6.9 µM
same,GI50,[13],1.19 µM
same,LC50,[13],5.3 µM
same,TGI SK-BR-3,[13],2.52E−06 Molar
